This passage reports TGI and GI50 results from PubChem BioAssay (NCI).

Test systems include KM12 colon; OVCAR-4 ovarian; OVCAR-3 ovarian; RXF 393 renal; UACC-257 melanoma; HCT-15 colon; SF-295 CNS; A549 NSCLC; SW-620 colon; U251 CNS; KM20L2 colon; SF-539 CNS; SNB-75 CNS; MALME-3M melanoma.
Common to all, as to experiment: NCI tumour cell line growth inhibition, 48 h

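These data come from cells grown in 96-well plates and exposed to compound for 48 hours at five concentrations. The concentration for 50% growth inhibition is given as GI50. TGI is the concentration that stops growth completely.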 Where only a bound is given, the exact number is not on record here.

As to `O=C(N/N=C/c1cc(Br)cc(Br)c1[O-])c1ccccc1O.O=C(N/N=C/c1cc(Br)cc(Br)c1[O-])c1ccccc1O.[Zn+2]`, the TGI was found to be 15.9 µM in the assay on KM12 colon; 1.5 µM in the assay on OVCAR-4 ovarian; 0.742 µM with OVCAR-3 ovarian; 11.9 µM in the assay with RXF 393 renal; 10.6 µM in the assay on UACC-257 melanoma; 14.4 µM in the assay on HCT-15 colon. In addition, the TGI worked out at 5.28 µM in the assay on SF-295 CNS; 21.6 µM with A549 NSCLC; 19.5 µM in the assay on SW-620 colon; 2.01 µM in the assay on U251 CNS; 6.57 µM in the assay with KM20L2 colon; 10.7 µM in the assay with SF-539 CNS. The TGI amounted to 18.8 µM in the assay on SNB-75 CNS and 8.77 µM in the assay with MALME-3M melanoma.

With `C/C(=N\NC(=O)c1ccccc1O)c1cccc(/C(C)=N/NC(=O)c2ccccc2O)n1.O=S(=O)([O-])[O-].[Fe+2]`, the TGI with KM12 colon, with OVCAR-4 ovarian, in the assay with OVCAR-3 ovarian, in the assay on RXF 393 renal, in the assay with UACC-257 melanoma and with HCT-15 colon was greater than 100 µM in each case. Further, the TGI in the assay with SF-295 CNS, in the assay on A549 NSCLC, in the assay on SW-620 colon, in the assay on U251 CNS, with KM20L2 colon and in the assay on SF-539 CNS was greater than 100 µM each time. Also, the TGI in the assay with SNB-75 CNS and in the assay with MALME-3M melanoma was greater than 100 µM throughout. The GI50 in the assay with OVCAR-4 ovarian was greater than 100 µM; with OVCAR-3 ovarian, greater than 100 µM; in the assay with UACC-257 melanoma, greater than 100 µM; in the assay on U251 CNS, 59.1 µM; with KM20L2 colon, greater than 100 µM; in the assay on SF-539 CNS it was greater than 100 µM.
